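Each compound was tested at five concentrations against cells in 96-well plates for 48 hours. Abbreviation: GI50, concentration required for 50% inhibition of growth. TGI: concentration producing complete growth inhibition.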
Assays:
Assay in all cases: growth of human tumour cells (NCI), 48 h
MDA-MB-435 = system: MDA-MB-435
EKVX NSCLC = system: EKVX NSCLC
HT29 colon = system: HT29 colon
A549 NSCLC = system: A549 NSCLC
K-562 leukemia = system: K-562 leukemia
IGROV1 ovarian = system: IGROV1 ovarian
SK-MEL-5 melanoma = system: SK-MEL-5 melanoma
MALME-3M melanoma = system: MALME-3M melanoma
SN12C renal = system: SN12C renal
NCI/ADR-RES ovarian = system: NCI/ADR-RES ovarian
UO-31 renal = system: UO-31 renal
NCI-H460 lung = system: NCI-H460 lung
HS 578T breast = system: HS 578T breast
M14 melanoma = system: M14 melanoma
SK-MEL-28 melanoma = system: SK-MEL-28 melanoma
786-0 renal = system: 786-0 renal
SW-620 colon = system: SW-620 colon
SF-295 CNS = system: SF-295 CNS
BT-549 breast = system: BT-549 breast
OVCAR-4 ovarian = system: OVCAR-4 ovarian
NCI-H522 lung = system: NCI-H522 lung
OVCAR-5 ovarian = system: OVCAR-5 ovarian
T-47D breast = system: T-47D breast
HCC-2998 colon = system: HCC-2998 colon
MDA-MB-231 breast = system: MDA-MB-231 breast
CCRF-CEM leukemia = system: CCRF-CEM leukemia
HCT-116 colon = system: HCT-116 colon
RXF 393 renal = system: RXF 393 renal
NCI-H23 lung = system: NCI-H23 lung
HL-60(TB) leukemia = system: HL-60(TB) leukemia
SF-268 CNS = system: SF-268 CNS
A498 renal = system: A498 renal
KM12 colon = system: KM12 colon
SR leukemia = system: SR leukemia
HCT-15 colon = system: HCT-15 colon
TK-10 renal = system: TK-10 renal
UACC-62 melanoma = system: UACC-62 melanoma
OVCAR-8 ovarian = system: OVCAR-8 ovarian
OVCAR-3 ovarian = system: OVCAR-3 ovarian
ACHN renal = system: ACHN renal
SNB-19 CNS = system: SNB-19 CNS
SNB-75 CNS = system: SNB-75 CNS
UACC-257 melanoma = system: UACC-257 melanoma
U251 CNS = system: U251 CNS
SK-MEL-2 melanoma = system: SK-MEL-2 melanoma
PC-3 prostate = system: PC-3 prostate
SF-539 CNS = system: SF-539 CNS
LOX IMVI melanoma = system: LOX IMVI melanoma
HOP-92 NSCLC = system: HOP-92 NSCLC
RPMI-8226 leukemia = system: RPMI-8226 leukemia
HOP-62 NSCLC = system: HOP-62 NSCLC
CAKI-1 renal = system: CAKI-1 renal
MOLT-4 leukemia = system: MOLT-4 leukemia
DU-145 prostate = system: DU-145 prostate

## CN(C)C1CCN(Cc2ccc(NC(=O)c3cncc(C#Cc4cnc(N)c5ncccc45)c3)cc2C(F)(F)F)CC1
MDA-MB-435
  GI50: 0.922 µM
  TGI: 1.83 µM
EKVX NSCLC
  GI50: 8.46 µM
  TGI: 18.7 µM
HT29 colon
  GI50: 1.3 µM
  TGI: 6.82 µM
A549 NSCLC
  GI50: 8.25 µM
  TGI: 19.2 µM
K-562 leukemia
  GI50: 0.0158 µM
  TGI: 1.02 µM
IGROV1 ovarian
  GI50: 9.48 µM
  TGI: 19.9 µM
SK-MEL-5 melanoma
  GI50: 5.51 µM
  TGI: 12.9 µM
MALME-3M melanoma
  GI50: 0.828 µM
  TGI: 1.65 µM
SN12C renal
  GI50: 8.94 µM
  TGI: 18.1 µM
NCI/ADR-RES ovarian
  GI50: 1.23 µM
  TGI: 2.7 µM
UO-31 renal
  GI50: 0.999 µM
  TGI: 1.78 µM
NCI-H460 lung
  GI50: 1.12 µM
  TGI: 2.5 µM
HS 578T breast
  GI50: 3.84 µM
  TGI: 14.8 µM
M14 melanoma
  GI50: 0.962 µM
  TGI: 1.87 µM
SK-MEL-28 melanoma
  GI50: 0.912 µM
  TGI: 1.74 µM
786-0 renal
  GI50: 1.01 µM
  TGI: 1.93 µM
SW-620 colon
  GI50: 1.32 µM
  TGI: 4.03 µM
SF-295 CNS
  GI50: 8.88 µM
  TGI: 17.3 µM
BT-549 breast
  GI50: 7.77 µM
  TGI: 15.3 µM
OVCAR-4 ovarian
  GI50: 1.9 µM
  TGI: 9.24 µM
NCI-H522 lung
  GI50: 9.86 µM
  TGI: 26.5 µM
OVCAR-5 ovarian
  GI50: 8.21 µM
  TGI: 15.6 µM
T-47D breast
  GI50: 11.6 µM
  TGI: 43.8 µM
HCC-2998 colon
  GI50: 9.21 µM
  TGI: 20.2 µM
MDA-MB-231 breast
  GI50: 0.742 µM
  TGI: 1.61 µM
CCRF-CEM leukemia
  GI50: 1.54 µM
  TGI: 6.07 µM
HCT-116 colon
  GI50: 8.28 µM
  TGI: 18 µM
RXF 393 renal
  GI50: 1.9 µM
  TGI: 7.67 µM
NCI-H23 lung
  GI50: 7.9 µM
  TGI: 19.9 µM
HL-60(TB) leukemia
  GI50: 9.8 µM
  TGI: 24.4 µM
SF-268 CNS
  GI50: 1.68 µM
  TGI: 4.72 µM
A498 renal
  GI50: 5.65 µM
  TGI: 14.1 µM
KM12 colon
  GI50: 0.236 µM
  TGI: 6.88 µM
SR leukemia
  GI50: 2.05 µM
  TGI: 50 µM
HCT-15 colon
  GI50: 5.08 µM
  TGI: 13.7 µM
TK-10 renal
  GI50: 9.69 µM
  TGI: 19.5 µM
UACC-62 melanoma
  GI50: 6.09 µM
  TGI: 13.8 µM
OVCAR-8 ovarian
  GI50: 9.11 µM
  TGI: 29 µM
OVCAR-3 ovarian
  GI50: 9.3 µM
  TGI: 17.6 µM
ACHN renal
  GI50: 0.828 µM
  TGI: 1.51 µM
SNB-19 CNS
  GI50: 10 µM
  TGI: 21.2 µM
SNB-75 CNS
  GI50: 5.39 µM
  TGI: 11.5 µM
UACC-257 melanoma
  GI50: 1.43 µM
  TGI: 3.97 µM
U251 CNS
  GI50: 1.03 µM
  TGI: 2.22 µM
SK-MEL-2 melanoma
  GI50: 8.02 µM
  TGI: 19.8 µM
PC-3 prostate
  GI50: 7.42 µM
  TGI: 15.5 µM
SF-539 CNS
  GI50: 2.13 µM
  TGI: 8.98 µM
LOX IMVI melanoma
  GI50: 8.01 µM
  TGI: 20 µM
HOP-92 NSCLC
  GI50: 2.77 µM
  TGI: 11.3 µM
RPMI-8226 leukemia
  GI50: 4.31 µM
  TGI: 17 µM
HOP-62 NSCLC
  GI50: 9.34 µM
  TGI: 26.4 µM
CAKI-1 renal
  GI50: 8.44 µM
  TGI: 15.6 µM
MOLT-4 leukemia
  GI50: 1.55 µM
  TGI: 5.57 µM
DU-145 prostate
  GI50: 0.904 µM
  TGI: 1.72 µM
